In assay [1] the test system is GSDMD pore formation. The experiment in a line: GSDMD membrane staining and pyroptotic bubbles, immunofluorescence. The conditions noted are these: 30 μM, 30 min after nigericin. The class given is cell-based, human. The procedure: Immunostaining and confocal microscopy: cells grown on coverslips were fixed for 15 min with 4% paraformaldehyde in PBS, permeabilized for 5 min in 0.1% Triton X-100 in PBS and blocked using 5% BSA for 1 hr. Then, cells were stained with the indicated primary antibodies followed by incubation with fluorescent-conjugated secondary antibodies (Jackson ImmunoResearch). Nuclei were counterstained with DAPI (4,6-diamidino-2-phenylindole) (Sigma-Aldrich). Slides were mounted using Aqua-Poly/Mount (Dako). Images were captured using a laser scanning confocal microscope (Olympus Fluoview FV1000 Confocal System) with a 63× water immersion objective and Olympus Fluoview software (Olympus). All confocal images are representative of three independent experiments.
To assess which steps in NLRP3-mediated inflammation were inhibited post ASC speck formation, LPS-primed THP-1 cells were treated with vehicle or 30 μM z-VAD-fmk, disulfiram or Bay 11-7082 1 hr before adding nigericin, and cleavage and activation of caspase-1, GSDMD, and pro-IL-1β were analysed by immunoblot of whole cell lysates 30 min later (FIG. 50). Secretion of processed IL-1β was also assessed by immunoblot of culture supernatants. […] Because immunoblots are not quantitative, caspase-1 activity 30 min after adding nigericin was also assessed using a fluorescent substrate in intact cells. […] Next, the effect of z-VAD-fmk, disulfiram and Bay 11-7082 on LPS+nigericin-induced GSDMD pore formation was assessed by immunofluorescence microscopy using a monoclonal antibody that was generated that recognizes both uncleaved GSDMD and its pore form (FIGS. 53, 54, and 64-66). […]
Cell death was determined by CytoTox96 assay. […] Cell death was determined by CytoTox96 assay. […] Representative images of ASC specks (arrowheads) and mean±s.d. percent of cells with ASC specks analyzed 20 min later (FIG. 47). […] Caspase-1 activity was assayed 30 min after adding nigericin using a cell-permeable fluorescence dye FAM-YVAD-FMK (FIG. 52). […]

Assay [2] addresses T1, caspase-1 (Homo sapiens, UniProt P29466).
T1 sequence (P29466 120-404): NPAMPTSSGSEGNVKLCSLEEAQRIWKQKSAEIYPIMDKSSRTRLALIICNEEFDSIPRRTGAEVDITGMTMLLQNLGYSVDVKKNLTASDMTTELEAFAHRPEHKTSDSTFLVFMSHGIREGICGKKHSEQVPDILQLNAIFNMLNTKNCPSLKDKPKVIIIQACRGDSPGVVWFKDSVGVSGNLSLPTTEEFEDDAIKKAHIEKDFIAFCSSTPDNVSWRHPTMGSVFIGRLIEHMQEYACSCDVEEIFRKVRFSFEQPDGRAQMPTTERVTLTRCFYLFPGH
The experiment in a line: Caspase-1 inhibition assay (Ac-YVAD-AMC). The format is biochemical. The procedure:
Caspase-1 and caspase-11 inhibition assays: the fluorogenic assay for caspase-1 and caspase-11 activity is based on release of 7-amino-4-methylcoumarin (AMC) from the caspase substrate Ac-YVAD-AMC. Compounds (8 nM-50 μM) were incubated with 0.5 U of caspase-1 or caspase-11 for 30 min in assay buffer (20 mM HEPES, 150 mM NaCl) in 384-well plates (Corning 3820) before addition of Ac-YVAD-AMC (40 μM) to initiate the reactions. Reactions were monitored in a SpectraMax M5 plate reader (Molecular Devices, Sunnyvale, Calif. USA) with excitation/emission wavelengths at 350/460 nm. The fluorescence intensity of each reaction was recorded every 2 min for 2 hrs.
Fluorescence intensity at 460 nm was measured after excitation at 350 nm.

Assay [3] concerns IL-1β. Nature of the assay: IL-1β secretion by ELISA, THP-1 plus nigericin. The class given is cell-based, human. The conditions noted are these: THP-1, 40 μM. How it is done:
Measurement of cytokines: concentrations of IL-1 (3 in culture supernatants or mouse serum were measured by ELISA kit (R&D Systems) according to the manufacturer's instructions. […] The number of surviving cells was determined by CellTiter-Glo assay (FIGS. 4 and 6) and IL-1β in culture supernatants was assessed by ELISA (FIG. 8) 2 hrs later. […] The number of surviving cells was determined by CellTiter-Glo assay (FIGS. 5 and 7) and IL-1β in culture supernatants was assessed by ELISA (FIG. 9) 2.5 hrs later.
For orientation: ELISA stands for enzyme-linked immunosorbent assay.

Broadly, the IC50 is the concentration that inhibits the measured activity by half. High values mean weaker potency, low ones greater potency.

Consider `Cc1ccc(S(=O)(=O)/C=C/C#N)cc1` [Bay 11-7082], for which, in assay [1], the “GSDMD membrane staining and pyroptotic bubbles” value is on record as “completely blocked”. Also, the caspase-1 inhibition entry in assay [2] is “inhibited”.

Consider `CCN(CC)C(=S)SSC(=S)N(CC)CC` [C-23, Tetraethylthiuram disulfide], for which the “GSDMD membrane staining and pyroptotic bubbles” value in assay [1] is reported as “completely blocked”. The compound further displayed an IC50 in assay [2] of 150 ± 40 nM. The “effect of Cu(II) on caspase-1 inhibition” value in assay [2] (with Cu(II)) was “did not strongly change”. For the same compound, the “nigericin-induced IL-1β secretion” value in assay [3] is “potency comparable to the pan-caspase inhibitor z-VAD-fmk”.
